Data set [1] has as its system rat. Particulars: Combined chronic toxicity/carcinogenicity; fischer; Oral; Water; dose end: 103 week; group: systemic; systemic / clinical chemistry / flouride / fluoride + systemic / in life observation / clinical signs / tooth-mottling + systemic / in life ….
For data set [2], the system named is rat. Particulars: Carcinogenicity, sprague dawley, Oral, Feed, dose end: 24 month, group: systemic.
Data set [3] deals with rat. Particulars: Subchronic oral toxicity in rodents, fischer, Water, dose end: 6 month, group: systemic.
In data set [4] the test system is mouse. Particulars: Subchronic oral toxicity in rodents, B6C3F1, Water, dose end: 6 month, group: systemic.
Data set [5] relates to rat. Particulars: Sub-acute repeat dose toxicity, fischer, Oral, Water, dose end: 14 day, group: systemic.
Data set [6] deals with mouse. Particulars: Sub-acute repeat dose toxicity, b6c3f1, Oral, Water, dose end: 14 day, group: systemic.
Data set [7] relates to rat. Particulars: Prenatal developmental toxicity study; other; Oral; Water; dose end: 15 GD; group: maternal; systemic / in life observation / body weight / body weight gain + systemic / in life observation / water consumption / water consumption.
For the next data set, the system named is rabbit. Particulars: Prenatal developmental toxicity study; new zealand white; Oral; Water; dose end: 19 GD; group: maternal; systemic / in life observation / body weight / body weight gain + systemic / in life observation / food consumption / food consumption + ….
Data set [8] deals with rat. Particulars: Multigenerational reproductive toxicity study, CD CRL:CD-BR, Oral, Water, dose end: 2 generation.
The test system of data set [9] is rat. Particulars: Prenatal developmental toxicity study, other, Oral, Water, dose end: 20 GD, group: maternal.
The test system of data set [10] is mouse. Particulars: Combined chronic toxicity/carcinogenicity; b6c3f1; Oral; Water; dose end: 103 week; group: systemic; systemic / clinical chemistry / flouride / fluoride + systemic / in life observation / clinical signs / tooth-attrition + systemic / in life….
A further data set has as its system dog. Particulars: Carcinogenicity; beagle; Oral; Capsule; dose end: 109 month; group: systemic; systemic / pathology microscopic / urinary bladder / carcinoma + systemic / clinical chemistry / alanine aminotransferase (alt/sgpt) / ….
The test system of data set [11] is rat. Particulars: Developmental neurotoxicity study; long evans; Inhalation; Whole-Body; dose end: 160 PND; group: cannot be grouped; systemic / in life observation / body weight / body weight + developmental / developmental landmark / vaginal opening / vaginal opening + ….
Data set [12] concerns rat. Particulars: Developmental neurotoxicity study, wistar, Oral, Water, dose end: 45 PND, group: cannot be grouped.
Where [13] appears, read: systemic / in life observation / clinical signs / tooth-dysplasia + systemic / in life observation / clinical signs / tooth-discolored + ….
[14] abbreviates: systemic / organ weight / [other] / absolute + systemic / organ weight / [other] / relative to body weight + systemic / organ weight / ….
The mark [15] stands for this setting: systemic / pathology gross / stomach / hemorrhage + systemic / pathology gross / stomach / ulcer + systemic / pathology microscopic / ….
The mark [16] stands for this setting: systemic / in life observation / body weight / body weight.
The mark [17] stands for this setting: systemic / in life observation / body weight / body weight + systemic / in life observation / clinical signs / dehydration + systemic / in ….
Setting [18] is: group: offspring, systemic / in life observation / clinical signs / tooth nos.
The mark [19] stands for this setting: group: parental, systemic / in life observation / water consumption / water consumption + systemic / pathology microscopic / stomach / hyperkeratosis + ….
Setting [20] is: systemic / in life observation / body weight / body weight gain + systemic / in life observation / food consumption / food consumption + ….
[21] abbreviates: systemic / clinical chemistry / dopamine / dopamine + systemic / clinical chemistry / protein / protein + systemic / in life observation / ….

Results on three compounds are retold here after EPA's ToxRefDB 2.

On to `[F-].[Na+]` [Sodium fluoride], for which the LEL amounted to 1.3 mg/kg/day with rat [1]; 4 mg/kg/day with rat [2] (setting [13]); 5 mg/kg/day in the data set on rat [3] (systemic / pathology microscopic / stomach / hyperplasia); 7.5 mg/kg/day in the data set on mouse [4] (systemic / pathology microscopic / bone / proliferation); 20 mg/kg/day in the data set with rat [5] (setting [17]); 120 mg/kg/day in the data set with mouse [6] (systemic / in life observation / body weight / body weight + systemic / in life observation / water consumption / water consumption + …). The LEL with rat [7] amounted to 27 mg/kg/day; with rabbit, 29 mg/kg/day; with rat [8] (setting [18]) it was 12.5 mg/kg/day; with rat [8] (group: parental, systemic / pathology microscopic / stomach / hyperkeratosis + systemic / in life observation / water consumption / water consumption), 5 mg/kg/day; with rat [9] (systemic / in life observation / water consumption / water consumption), 24.7 mg/kg/day; in the data set on mouse [10], 2.4 mg/kg/day. Also, the LOAEL in the data set with rat [1] is 1.3 mg/kg/day; in the data set with rat [2] (setting [14]), > 25 mg/kg/day; in the data set with rat [3] (setting [15]) it was 15 mg/kg/day; in the data set on mouse [4] (systemic / in life observation / body weight / body weight gain), 30 mg/kg/day; with rat [5] (setting [16]), 5 mg/kg/day; in the data set with mouse [6] (setting [16]), 7.5 mg/kg/day. Moreover, the LOAEL was > 27 mg/kg/day in the data set with rat [7]; > 29 mg/kg/day with rabbit; > 12.5 mg/kg/day in the data set on rat [8] (setting [18]); > 12.5 mg/kg/day with rat [8] (setting [19]); > 25.1 mg/kg/day in the data set with rat [9] (setting [20]); 2.4 mg/kg/day in the data set on mouse [10]. Also, the NEL with rat [1] was < 1.3 mg/kg/day; with rat [2] (setting [13]), < 4 mg/kg/day; with rat [3] (setting [15]), 1.5 mg/kg/day; with mouse [4] (systemic / in life observation / body weight / body weight gain + systemic / pathology microscopic / bone / proliferation + systemic / in …), 1.5 mg/kg/day; in the data set with rat [5] (setting [17]), 10 mg/kg/day; in the data set with mouse [6] (systemic / in life observation / body weight / body weight + systemic / in life observation / water consumption / water consumption) it was 60 mg/kg/day. The NEL in the data set with rat [7] is 18 mg/kg/day; in the data set on rabbit, 18 mg/kg/day; in the data set with rat [8] (setting [18]), 8.75 mg/kg/day; in the data set on rat [8] (setting [19]) it was 1.25 mg/kg/day; in the data set on rat [9] (setting [20]), 15.6 mg/kg/day; in the data set with mouse [10] it was < 2.4 mg/kg/day. The NOAEL in the data set with rat [1] is < 1.3 mg/kg/day; with rat [2] (setting [14]), ≥ 25 mg/kg/day; in the data set on rat [3] (setting [15]), 5 mg/kg/day; with mouse [4] (systemic / in life observation / body weight / body weight gain + systemic / in life observation / clinical signs / [other] + systemic / in …), 15 mg/kg/day; with rat [5] (setting [17]) it was 2.5 mg/kg/day; in the data set on mouse [6] (setting [16]), < 7.5 mg/kg/day. Further, the NOAEL in the data set with rat [7] was ≥ 27 mg/kg/day; in the data set with rabbit it was ≥ 29 mg/kg/day; in the data set with rat [8] (setting [18]), ≥ 12.5 mg/kg/day; with rat [8] (setting [19]), ≥ 12.5 mg/kg/day; with rat [9] (setting [20]), ≥ 25.1 mg/kg/day; in the data set on mouse [10], < 2.4 mg/kg/day.
As to `Nc1ccc2ccccc2c1` [2-Naphthylamine], in the data set on dog, the LEL was 18.4 mg/kg/day, the LOAEL was > 18.4 mg/kg/day, the NEL was < 18.4 mg/kg/day and the NOAEL was ≥ 18.4 mg/kg/day.
For the compound `CO` [Methanol], in the data set with rat [11], the LEL worked out at 6110 mg/kg/day, the LOAEL was > 6110 mg/kg/day, the NEL is < 6110 mg/kg/day and the no-observed-adverse-effect level (NOAEL) was ≥ 6110 mg/kg/day. In the data set on rat [12] (setting [21]), the LOAEL is > 2000 mg/kg/day, the NEL amounted to 500 mg/kg/day and the NOAEL was ≥ 2000 mg/kg/day. For the same compound, the LEL with rat [12] (systemic / clinical chemistry / protein / protein + systemic / clinical chemistry / dopamine / dopamine + systemic / in life observation / …) worked out at 1000 mg/kg/day.

In general, LOAEL refers to the lowest dose or exposure tested at which an adverse effect was seen. By NOAEL is commonly meant the highest dose or exposure tested at which no adverse effect was seen.
